Literature values in patent publication US10945961B2, “Method using enteric-coated etidronate for treating calcification, hypercalcaemia, and calcinosis of the brain and other organs” (ZY YTHERAPEUTICS LLC, priority 2017, dated 2021).
“Also recorded” adds a separate entry of the source.

Columns and labels:
[1] = animal studies
[2] = for plasma half-life: comparison of first- with 2nd and 3rd generation bisphosphonates
[3] = test system: patients with brain calcifications (Fahr's Disease)
[4] = preclinical studies; immediate-release
[5] = in vitro

| bone clearance estimates [1] | metabolism ([2]; in vivo) | amount of drug absorbed after an oral dose ([2]; oral dose, immediate-release) [%] | absorbed dose excreted in urine ([2]; within 24 hours, fraction of the absorbed dose) | Compound | plasma half-life [2] [h] | symptomatic effect (seizures, headaches, Parkinsonian symptoms) ([3]; patients with brain calcification) | size of intracerebral calcifications ([3]; patients, finding of Loeb) | crossing of the blood-brain barrier [4] | affinity for solid-phase calcium phosphate [5] |
| --- | --- | --- | --- | --- | --- | --- | --- | --- | --- |
| up to 165 days | not metabolized | 3 | approximately half | CC(O)(P(=O)(O)O)P(=O)(O)O [disodium etidronate, 1-hydroxyethane 1,1-diphosphonic acid] | 6 | reduction in seizures and headaches; also recorded: symptomatic improvement of seizures, headaches, and Parkinsonian symptoms | does not reduce the size of intracerebral calcifications | does not significantly cross the blood-brain barrier | high affinity |
|  |  |  |  | O=P(O)(O)C(O)(Cn1ccnc1)P(=O)(O)O [zolendronic acid] | 146 |  |  |  |  |
